Data: article PMC9487755 (Epigenetics, 2021)
Like-named read-outs stand apart in the source and are kept apart here.

Columns and labels:
C. difficile CamA = target: T1, C. difficile CamA (Clostridioides difficile, UniProt Q183J3); experiment: CamA methylation inhibition assay; format: biochemical; settings: for Relative inhibition of CamA activity at a single inhibitor concentration: 50 μM inhibitor
T1 sequence (Q183J3 1-577): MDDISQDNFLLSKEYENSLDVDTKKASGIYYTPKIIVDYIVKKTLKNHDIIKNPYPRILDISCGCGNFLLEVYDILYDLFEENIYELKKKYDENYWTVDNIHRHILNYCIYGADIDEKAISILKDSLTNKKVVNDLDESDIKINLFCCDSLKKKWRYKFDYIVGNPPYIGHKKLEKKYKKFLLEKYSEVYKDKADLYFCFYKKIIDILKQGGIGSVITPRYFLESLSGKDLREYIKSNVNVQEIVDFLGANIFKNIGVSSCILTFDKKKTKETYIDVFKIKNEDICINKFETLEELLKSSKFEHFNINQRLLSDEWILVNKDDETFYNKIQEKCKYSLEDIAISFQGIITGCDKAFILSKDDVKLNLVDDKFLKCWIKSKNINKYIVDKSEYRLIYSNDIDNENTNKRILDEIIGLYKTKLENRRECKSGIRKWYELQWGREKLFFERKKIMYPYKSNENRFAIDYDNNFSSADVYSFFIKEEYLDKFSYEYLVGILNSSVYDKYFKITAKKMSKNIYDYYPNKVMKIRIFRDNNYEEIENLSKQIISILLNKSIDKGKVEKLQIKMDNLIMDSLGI

CamA [1] = target: T2, CamA (Clostridioides difficile, UniProt Q183J3); experiment: ITC binding of inhibitors to CamA
T2 sequence (Q183J3 1-577): T1 sequence (Q183J3 1-577)

CamA [2] = target: T2, CamA; settings: cited from earlier work
E. coli Dam = settings: read-out: Km of SAM for E. coli Dam; cited from earlier work
phage T4 Dam = settings: read-out: Km of SAM for phage T4 Dam; cited from earlier work
M.TaqI = settings: read-out: KD of SAM for M.TaqI; cited from earlier work
PRMT7 = settings: read-out: IC50 PRMT7 activity; cited from earlier work
[3] = system: four human RNA adenine MTases and two bacterial DNA adenine MTases; experiment: Selectivity: in vitro inhibition of other class I MTases; format: biochemical; settings: four human RNA adenine MTases and two bacterial DNA adenine MTases (Figure 5)
[4] = target: T3, CamA (DNA adenine methyltransferase, plasmid pXC2184) (Clostridioides difficile, UniProt Q183J3 1-577); experiment: X-ray crystallography
T3 sequence: T1 sequence (Q183J3 1-577)

Molecule: CC(C)N(CCCNC(=O)Nc1ccc(C(C)(C)C)cc1)C[C@H]1O[C@@H](n2ccc3c(N)ncnc32)[C@H](O)[C@@H]1O [EPZ004777]
- Relative inhibition of CamA activity at a single inhibitor concentration (C. difficile CamA): notable inhibition

Molecule: CC(C)N(C[C@H]1O[C@@H](n2cnc3c(N)ncnc32)[C@H](O)[C@@H]1O)[C@H]1C[C@@H](CCc2nc3cc(C(C)(C)C)ccc3[nH]2)C1 [EPZ5676, pinometostat]
- IC50 (C. difficile CamA): > 250 µM
- Relative inhibition of CamA activity at a single inhibitor concentration (C. difficile CamA): failed to inhibit CamA
- Kd (CamA [1]): > 50 µM

Molecule: Nc1ncnc2c1ccn2[C@@H]1O[C@H]([C@H](O)c2ccccc2)[C@@H](O)[C@H]1O [LLY-283]
- Relative inhibition of CamA activity at a single inhibitor concentration (C. difficile CamA): much weaker inhibition than sinefungin

Molecule: C[S+](CC[C@H](N)C(=O)[O-])C[C@H]1O[C@@H](n2cnc3c(N)ncnc32)[C@H](O)[C@@H]1O (stereo partly drawn) [SAM, S-adenosyl-L-methionine]
- Kd (CamA [2]; read-out: KD of SAM binding by CamA): 35 µM
- Km (CamA [2]; read-out: Km of SAM for CamA): > 17 µM
- Km (E. coli Dam): 3 to 6 µM
- Km (phage T4 Dam): 500 nM
- Kd (M.TaqI): 2000 nM

Molecule: NCCCSC[C@H]1O[C@@H](n2cnc3c(N)ncnc32)[C@H](O)[C@@H]1O [SGC0911]
- IC50 (PRMT7): 1000 nM

Molecule: CC(C)N(CCCNC(=O)Nc1ccc(C(C)(C)C)cc1)C[C@H]1O[C@@H](n2cc(Br)c3c(N)ncnc32)[C@H](O)[C@@H]1O [SGC0946]
- IC50 (C. difficile CamA): 4.7 µM
- Relative inhibition of CamA activity at a single inhibitor concentration (C. difficile CamA): notable inhibition
- Fold more potent inhibition of CamA (IC50) than EPZ004777 (C. difficile CamA; SGC0946 vs. EPZ004777): ~ 9 X
- Kd (CamA [1]): 6.3 µM
- Fold stronger binding to CamA (KD) than EPZ004777 (CamA [1]; SGC0946 vs. EPZ004777): ~ 3 X
- in vitro inhibition against six distinct MTase enzymes [3]: ~ 50%

Molecule: CC1=C(C)C(=O)C(C(C)(C)CC(=O)N(CCCCSC[C@H]2O[C@@H](n3cnc4c(N)ncnc43)[C@H](O)[C@@H]2O)Cc2cccc(-c3ccc(Cl)cc3)c2)=C(C)C1=O [SGC3027]
- Relative inhibition of CamA activity at a single inhibitor concentration (C. difficile CamA): does not possess in vitro inhibitory activity

B1: 14-bp CamA co-crystallization duplex (dsDNA)
DNA 1: TTCAAAAAGTCCCA
DNA 2: ATGGGACTTTTTGA
- binding result [4]: binds
